Laboratory results published in publication PMC10465233, “Lys-urea-Aad, Lys-urea-Cmc and Lys-urea-Cms as potential pharmacophores for the design of PSMA-targeted radioligands to reduce off-target uptake in kidneys and salivary glands” (Theranostics, 2023).
Like-named read-outs stand apart in the source and are kept apart here.

Assays:
[1] = parameters: method as in earlier work; conditions: cited from earlier work
LNCaP tumor-bearing mice = assay: Radioligand therapy study in LNCaP tumor-bearing mice; format: in vivo, mouse; conditions: 37 MBq injected
Description: Imaging, biodistribution and radioligand therapy experiments were performed following previously published procedures using male NOD-scid IL2Rg^null (NSG) or NOD.Cg-Rag1^tm1MomIl2rg^tm1Wjl/SzJ (NRG) mice [10]-[12],[14]-[15]. The experiments were conducted according to the guidelines established by the Canadian Council on Animal Care and approved by Animal Ethics Committee of the University of British Columbia. The mice were briefly sedated by inhalation of 2% isoflurane in oxygen, and implanted subcutaneously with 1×10^7 LNCaP cells behind the left shoulder. The mice were imaged or used in biodistribution studies when the tumor grew to 5-8 mm in diameter over a period of 4-5 weeks.
For radiotherapy study, tumor-bearing mice were injected with saline (the control group), [^177Lu]Lu-PSMA-617 (37 MBq) or [^177Lu]-HTK03170 (37, 18.5 and 9.3 MBq) (n = 7-8 per treatment group). Tumor size and body weight were measured twice a week from the date of injection (Day 0) until completion of the study (Day 180). Endpoint criteria were defined as > 20% weight loss, tumor volume > 1000 mm^3, or active ulceration of the tumor.

[2] = source organ Large intestine contents
[3] = source organ Remainder of the body

SMILES	Kinetics value ([1]; source organ Brain) [MBq-h/MBq]	Kinetics value ([1]; source organ Heart) [MBq-h/MBq]	Kinetics value ([1]; source organ Kidneys) [MBq-h/MBq]	Kinetics value [1, 2] [MBq-h/MBq]	Kinetics value ([1]; source organ Liver) [MBq-h/MBq]	Kinetics value ([1]; source organ Lungs) [MBq-h/MBq]	Kinetics value ([1]; source organ Pancreas) [MBq-h/MBq]	Kinetics value [1, 3] [MBq-h/MBq]	Kinetics value ([1]; source organ Small intestine) [MBq-h/MBq]	Kinetics value ([1]; source organ Spleen) [MBq-h/MBq]	Kinetics value ([1]; source organ Stomach) [MBq-h/MBq]	Kinetics value ([1]; source organ Testes) [MBq-h/MBq]	Kinetics value ([1]; source organ Thyroid) [MBq-h/MBq]	Kinetics value ([1]; source organ Urinary bladder) [MBq-h/MBq]	Median survival (LNCaP tumor-bearing mice) [days]	Kinetics value ([1]; source organ Cortical bone) [MBq-h/MBq]
O=C([O-])CN1CCN(CC(=O)[O-])CCN(CC(=O)NCC2CCC(C(=O)NC(Cc3ccc4ccccc4c3)C(=O)NCCCCC(NC(=O)NC(CCC(=O)O)C(=O)O)C(=O)O)CC2)CCN(CC(=O)[O-])CC1.[177Lu+3] (centres unmarked) [[^177Lu]Lu-PSMA-617]	6.64E-03	3.28E-03	8.23E-01	8.80E-03	6.38E-02	4.85E-03	4.76E-03	1.68E-01	2.63E-02	1.41E-02	2.34E-04	4.23E-03	4.01E-04	8.04E-01	63	–
O=C([O-])CN1CCN(CC(=O)[O-])CCN(CC(=O)NCC2CCC(C(=O)NC(Cc3c4ccccc4cc4ccccc34)C(=O)NCCCCC(NC(=O)NC(CCCC(=O)O)C(=O)O)C(=O)O)CC2)CCN(CC(=O)[O-])CC1.[177Lu+3] (centres unmarked) [[^177Lu]Lu-HTK03149]	2.23E-03	1.94E-02	2.41E-01	9.24E-02	3.91E-01	1.72E-02	1.79E-02	5.31E-01	–	2.30E-02	8.07E-03	1.29E-02	2.03E-03	8.14E-01	–	7.60E-02
